Molecules are shown by their SMILES. Where two headings read alike, the source gives them in different places.

Drawing on patent US10501449B2 (priority 2018, dated 2019), this text covers inhibition and IC50 for 15 compounds.

One data set concerns the target hERG channels (Homo sapiens (Human), UniProt Q12809). The data set is described as follows: hERG Manual Patch Clamp Assay. The format is cell-based. The settings on record: human, HEK 293 cells stably expressing hERG channels, pH 7.4, 1 uM, read-out: hERG EP % Inh @ 1 uM.
Data set [1] deals with T1, hROMK (human Kir1.1) (Homo sapiens (Human), UniProt P48048). Nature of the data set: cell-based. Format: cell-based. The conditions noted are these: whole-cell manual patch clamp, CHO T-Rex hROMK stable cell line, voltage step to -120 mV, Ba2+-subtracted hROMK current; read-out: ROMK EP IC50.
Procedure: ROMK Manual Patch Clamp Assay
Cell culture conditions: Cells were maintained in conditions similar to those for Thallium flux assay. hROMK channel expression was induced by adding 0.6 μg/ml of Doxycycline 16-24 hrs prior to the experiments. On the day of experiment, the cells were dissociated using Versene, resuspended in growth media and plated onto coverslips 15 minutes prior to use.
Electrophysiology: The coverslip plated with cells was placed in the experiment chamber perfused with bath solution composed of (in mM): 135 NaCl, 5 KCl, 2 CaCl2, 1 MgCl2, 10 HEPES, 5 Glucose (pH 7.4). Patch pipettes with resistance between 2-5 Megaohms, when filled with a solution containing (in mM): 135 KCl, 1 EGTA, 1 MgCl2, 10 HEPES, 2 Na2ATP (pH 7.3), were used to form gigaseals. The cells were voltage clamped at −75 mV in whole-cell configuration using an Axopatch 200b or Multiclamp 700b (Molecular Devices) amplifier controlled by pClamp Software (Molecular Devices). The current was recorded by applying a voltage step to −120 mV every 10 seconds. […] At the end of the experiment, the cells were perfused with bath solution containing 2 mM Ba^2+ to isolate the contribution of hROMK current.
Data analysis: Raw current values (5 traces each for control, different compound concentration and Ba^2+ treatment groups) were exported from Clampfit into Microsoft Excel where the current remaining after application of Ba^2+ was subtracted from raw current to obtain hROMK specific current.
Data set [2] concerns the target T1, hROMK (human Kir1.1). The data set is described as follows: cell-based. The conditions noted are these: CHO T-Rex hROMK stable cell line; thallium flux; 10-point concentration response curve; read-out: Human ROMK Th Flux IC50.

Sequence of hERG channels (Q12809 whole entry): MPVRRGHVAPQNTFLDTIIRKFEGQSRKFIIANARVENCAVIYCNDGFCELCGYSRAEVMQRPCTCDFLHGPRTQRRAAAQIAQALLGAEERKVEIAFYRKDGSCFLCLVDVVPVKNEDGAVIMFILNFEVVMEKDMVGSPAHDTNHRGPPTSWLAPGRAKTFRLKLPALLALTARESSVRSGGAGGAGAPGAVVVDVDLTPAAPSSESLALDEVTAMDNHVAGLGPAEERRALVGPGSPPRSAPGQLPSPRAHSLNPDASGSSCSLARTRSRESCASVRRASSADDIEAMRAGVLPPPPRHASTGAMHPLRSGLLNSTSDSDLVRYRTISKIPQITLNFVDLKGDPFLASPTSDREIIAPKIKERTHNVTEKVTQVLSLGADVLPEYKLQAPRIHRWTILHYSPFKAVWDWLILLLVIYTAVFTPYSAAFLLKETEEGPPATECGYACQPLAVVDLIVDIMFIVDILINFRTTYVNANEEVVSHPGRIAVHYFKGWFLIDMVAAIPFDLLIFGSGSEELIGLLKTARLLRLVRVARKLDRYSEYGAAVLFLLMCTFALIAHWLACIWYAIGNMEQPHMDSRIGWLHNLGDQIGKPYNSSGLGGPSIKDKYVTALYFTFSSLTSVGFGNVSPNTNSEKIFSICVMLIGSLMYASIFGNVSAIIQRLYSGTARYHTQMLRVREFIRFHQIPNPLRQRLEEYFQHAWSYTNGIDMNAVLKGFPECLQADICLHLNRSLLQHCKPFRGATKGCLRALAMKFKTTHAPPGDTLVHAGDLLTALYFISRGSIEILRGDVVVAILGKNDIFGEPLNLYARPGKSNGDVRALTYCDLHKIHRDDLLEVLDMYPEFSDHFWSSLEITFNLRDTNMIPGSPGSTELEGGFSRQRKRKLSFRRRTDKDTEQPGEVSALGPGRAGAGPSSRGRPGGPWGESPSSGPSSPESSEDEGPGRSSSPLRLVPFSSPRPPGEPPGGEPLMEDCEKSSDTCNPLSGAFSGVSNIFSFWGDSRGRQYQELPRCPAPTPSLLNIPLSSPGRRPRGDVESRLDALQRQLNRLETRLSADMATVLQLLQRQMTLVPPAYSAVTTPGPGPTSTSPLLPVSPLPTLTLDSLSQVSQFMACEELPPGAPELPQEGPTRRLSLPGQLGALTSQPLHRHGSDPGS
T1 sequence (P48048 whole entry): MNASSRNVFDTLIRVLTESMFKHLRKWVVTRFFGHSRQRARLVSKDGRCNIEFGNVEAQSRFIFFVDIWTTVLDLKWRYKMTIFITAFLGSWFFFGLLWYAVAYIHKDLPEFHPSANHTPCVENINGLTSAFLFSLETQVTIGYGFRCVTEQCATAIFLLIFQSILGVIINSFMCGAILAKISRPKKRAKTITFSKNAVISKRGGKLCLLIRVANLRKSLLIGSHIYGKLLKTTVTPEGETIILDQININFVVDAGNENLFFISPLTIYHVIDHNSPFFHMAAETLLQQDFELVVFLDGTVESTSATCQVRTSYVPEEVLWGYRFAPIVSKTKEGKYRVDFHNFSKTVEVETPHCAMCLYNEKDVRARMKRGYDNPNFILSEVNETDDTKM

On to `Cc1cc(-n2ncc(CN3CCN[C@H](c4ccc5c(c4C)COC5=O)C3)n2)nc(C)c1C#N` [Example 184-I, (R)-2,4-dimethyl-6-(4-((3-(4-methyl-1-oxo-1,3-dihydroisobenzofuran-5-yl)piperazin-1-yl)methyl)-2H-1,2,3-triaozl-2-yl)nicotinonitrile], for which, at hERG channels, the inhibition at 1 µM is 6.1%. Further, the IC50 – broadly, the concentration at which inhibition is half-maximal – at hROMK (human Kir1.1) [1] was determined as 10 nM; at hROMK (human Kir1.1) [2] it was 30 nM.

`COc1cc(-n2cc(CN3CCN[C@H](c4ccc5c(c4C)COC5=O)C3)nn2)nc(C)c1C#N` [Example 187-I, (R)-4-methoxy-2-methyl-6-(4-((3-(4-methyl-1-oxo-1,3-dihydroisobenzofuran-5-yl)piperaizn-1-yl)methyl)-1H-1,2,3-triazol-1-yl)nicotinonitrile]: on hERG channels, the inhibition at 1 µM came to 11%. For the same compound, the results for the IC50 at hROMK (human Kir1.1) [1] and on hROMK (human Kir1.1) [2] were 25 nM and 43 nM, respectively.

Regarding `COc1cc(-n2ncc(CN3CCN[C@H](c4ccc5c(c4C)COC5=O)C3)n2)nc(C)c1C#N` [Example 188-I, (R)-4-methoxy-2-methyl-6-(4-((3-(4-methyl-1-oxo-1,3-dihydroisobenzofuran-5-yl)piperazin-1-yl)methyl)-2H-1,2,3-triazol-2-yl)nicotinonitrile], at hERG channels, the inhibition at 1 µM was found to be 18%. The IC50 at hROMK (human Kir1.1) [1] was 18 nM; at hROMK (human Kir1.1) [2] it was 37 nM.

On to `COc1nc(-n2cc(CN3CCN[C@H](c4ccc5c(c4C)COC5=O)C3)nn2)cc(C)c1C#N` [Example 189-I, (R)-2-methoxy-4-methyl-6-(4-((3-(4-methyl-1-oxo-1,3-dihydroisobenzofuran-5-yl)piperazin-1-yl)methyl)-1H-1,2,3-triazol-1-yl)nicotinonitrile], for which the inhibition at 1 µM on hERG channels was determined as 8.9%. Also, the IC50 stood at 17 nM at hROMK (human Kir1.1) [1] and 25 nM on hROMK (human Kir1.1) [2].

For `Cc1cc(-c2nnc(CN3C[C@@H](c4ccc5c(c4C)COC5=O)N[C@@H](C)C3)o2)ncc1C#N` [Example 191-I, 4-methyl-6-(5-(((3S,5R)-3-methyl-5-(4-methyl-1-oxo-1,3-dihydroisobenzofuran-5-yl)piperazin-1-yl)methyl)-1,3,4-oxadiazol-2-yl)nicotinonitrile], the inhibition at 1 µM at hERG channels turned out to be 4.3%. The IC50 at hROMK (human Kir1.1) [1] was determined as 21 nM; at hROMK (human Kir1.1) [2], 29 nM.

On to `Cc1cc(-c2cc(CN3CC[C@@H](O)[C@H](c4ccc5c(c4C)COC5=O)C3)on2)ncc1C#N` [Example 193-I, 6-(5-(((3R,4R)-4-hydroxy-3-(4-methyl-1-oxo-1,3-dihydroisobenzofuran-5-yl)piperidin-1-yl)methyl)isoxazol-3-yl)-4-methylnicotinonitrile], for which the inhibition at 1 µM on hERG channels stood at 14%. For the same compound, the IC50 is 20 nM at hROMK (human Kir1.1) [1] and 44 nM on hROMK (human Kir1.1) [2].

`Cc1cc(-n2cc(CN3C[C@H](CO)N(C)[C@H](c4ccc5c(c4C)COC5=O)C3)cn2)ncc1C#N` [Example 195-I, 6-(4-(((3R,5R)-3-(hydroxymethyl)-4-methyl-5-(4-methyl-1-oxo-1,3-dihydroisobenzofuran-5-yl)piperaizn-1-yl)methyl)-1H-pyrazol-1-yl)-4-methylnicotinonitrile]: the inhibition at 1 µM at hERG channels came to 5.9%. Further, the IC50 came out at 79 nM at hROMK (human Kir1.1) [1] and 66 nM at hROMK (human Kir1.1) [2].

Consider `COc1cc(-n2cc(CN3C[C@@H](c4ccc5c(c4C)COC5=O)N[C@@H](C)C3)cn2)ncn1` [Example 207-I, 5-((2R,6S)-4-((1-(6-methoxypyrimidin-4-yl)-1H-pyrazol-4-yl)methyl)-6-methylpiperazin-2-yl)-4-methylisobenzofuran-1(3H)-one], for which the inhibition at 1 µM at hERG channels came out at 10%. In addition, the results for the IC50 at hROMK (human Kir1.1) [1] and on hROMK (human Kir1.1) [2] were 18 nM and 53 nM, respectively.

In the case of `Cc1cc(-c2cc(CN3C[C@@H](c4ccc5c(c4C)COC5=O)N[C@@H](C)C3)no2)ncc1C#N` [Example 210-I, 4-methyl-6-(3-(((3S,5R)-3-methyl-5-(4-methyl-1-oxo-1,3-dihydroisobenzofuran-5-yl)piperazin-1-yl)methyl)isoxazol-5-yl)nicotinonitrile], the inhibition at 1 µM at hERG channels is 5.2%. The IC50 was found to be 20 nM on hROMK (human Kir1.1) [1] and 41 nM at hROMK (human Kir1.1) [2].

`Cc1cn(-c2ncc(CN3CCN[C@H](c4ccc5c(c4C)COC5=O)C3)cn2)cn1` [Example 216-I]: the inhibition at 1 µM on hERG channels was found to be 5.6%. Also, the figures for the IC50 at hROMK (human Kir1.1) [1] and at hROMK (human Kir1.1) [2] were 14 nM and 25 nM, respectively.

On to `Cc1nn(-c2ncc(CN3CCN[C@H](c4ccc5c(c4C)COC5=O)C3)cn2)cc1C#N` [Example 221-I, (R)-3-methyl-1-(5-((3-(4-methyl-1-oxo-1,3-dihydroisobenzofuran-5-yl)piperazin-1-yl)methyl)pyrimidin-2-yl)-1H-pyraozle-4-carbonitrile], for which the inhibition at 1 µM on hERG channels is 5.4%. Also, the IC50 was 13 nM on hROMK (human Kir1.1) [1] and 22 nM on hROMK (human Kir1.1) [2].

Consider `CCc1nn(-c2ncc(CN3CCN[C@H](c4ccc5c(c4C)COC5=O)C3)cn2)cc1C#N` [Example 228-I, (R)-3-ethyl-1-(5-((3-(4-methyl-1-oxo-1,3-dihydroisobenzofuran-5-yl)piperazin-1-yl)methyl)pyrimidin-2-yl)-1H-pyrazole-4-carbonitrile], for which the inhibition at 1 µM on hERG channels came out at 16%. The IC50 turned out to be 20 nM at hROMK (human Kir1.1) [1] and 14 nM on hROMK (human Kir1.1) [2].

Take `Cc1nc(-n2cc(CN3CCN[C@H](c4ccc5c(c4C)COC5=O)C3)cn2)ncc1C#N` [Example 230-I, (R)-4-methyl-2-(4-((3-(4-methyl-1-oxo-1,3-dihydroisobenzofuran-5-yl)piperazin-1-yl)methyl)-1H-pyrazol-1-yl)pyrimidine-5-carbonitrile]: the inhibition at 1 µM at hERG channels worked out at 2.2%. Besides, the IC50 at hROMK (human Kir1.1) [1] turned out to be 19 nM; on hROMK (human Kir1.1) [2], 32 nM.

In the case of `Cc1cc(-n2cc(CN3CC(C)O[C@H](c4ccc5c(c4C)COC5=O)C3)cn2)ncc1C#N` (stereo partly drawn) [Example 240-I, 4-methyl-6-(4-(((6R)-2-methyl-6-(4-methyl-1-oxo-1,3-dihydroisobenzofuran-5-yl)morpholino)methyl)-1H-pyrazol-1-yl)nicotinonitrile], the inhibition at 1 µM on hERG channels stood at 8.3%. In addition, the IC50 on hROMK (human Kir1.1) [1] stood at 34 nM; at hROMK (human Kir1.1) [2], 42 nM.

Turning to `COc1cc(-n2cc(CN3CCN[C@H](c4ccc5c(c4C)COC5=O)C3)nn2)ncc1C#N` [Example 255-I, (R)-4-methoxy-6-(4-((3-(4-methyl-1-oxo-1,3-dihydroisobenzofuran-5-yl)piperazin-1-yl)methyl)-1H-1,2,3-triazol-1-yl)nicotinonitrile], on hERG channels, the inhibition at 1 µM amounted to 9.5%. Besides, the IC50 on hROMK (human Kir1.1) [1] was 9.1 nM; on hROMK (human Kir1.1) [2] it was 33 nM.
